# Laboratory results: ChEMBL document CHEMBL4330164, “Propolis Components from Stingless Bees Collected on South Sulawesi, Indonesia, and Their Xanthine Oxidase Inhibitory Activity” (J Nat Prod, 2019)
# Molecular target: Xanthine dehydrogenase/oxidase (Bos taurus, UniProt P80457)
# Test: Inhibition of bovine milk xanthine oxidase assessed as reduction in uric acid production using xanthine as substrate after 10 mins by HPLC analysis; call rule not given here
# Xanthine dehydrogenase/oxidase, sequence (P80457 whole entry): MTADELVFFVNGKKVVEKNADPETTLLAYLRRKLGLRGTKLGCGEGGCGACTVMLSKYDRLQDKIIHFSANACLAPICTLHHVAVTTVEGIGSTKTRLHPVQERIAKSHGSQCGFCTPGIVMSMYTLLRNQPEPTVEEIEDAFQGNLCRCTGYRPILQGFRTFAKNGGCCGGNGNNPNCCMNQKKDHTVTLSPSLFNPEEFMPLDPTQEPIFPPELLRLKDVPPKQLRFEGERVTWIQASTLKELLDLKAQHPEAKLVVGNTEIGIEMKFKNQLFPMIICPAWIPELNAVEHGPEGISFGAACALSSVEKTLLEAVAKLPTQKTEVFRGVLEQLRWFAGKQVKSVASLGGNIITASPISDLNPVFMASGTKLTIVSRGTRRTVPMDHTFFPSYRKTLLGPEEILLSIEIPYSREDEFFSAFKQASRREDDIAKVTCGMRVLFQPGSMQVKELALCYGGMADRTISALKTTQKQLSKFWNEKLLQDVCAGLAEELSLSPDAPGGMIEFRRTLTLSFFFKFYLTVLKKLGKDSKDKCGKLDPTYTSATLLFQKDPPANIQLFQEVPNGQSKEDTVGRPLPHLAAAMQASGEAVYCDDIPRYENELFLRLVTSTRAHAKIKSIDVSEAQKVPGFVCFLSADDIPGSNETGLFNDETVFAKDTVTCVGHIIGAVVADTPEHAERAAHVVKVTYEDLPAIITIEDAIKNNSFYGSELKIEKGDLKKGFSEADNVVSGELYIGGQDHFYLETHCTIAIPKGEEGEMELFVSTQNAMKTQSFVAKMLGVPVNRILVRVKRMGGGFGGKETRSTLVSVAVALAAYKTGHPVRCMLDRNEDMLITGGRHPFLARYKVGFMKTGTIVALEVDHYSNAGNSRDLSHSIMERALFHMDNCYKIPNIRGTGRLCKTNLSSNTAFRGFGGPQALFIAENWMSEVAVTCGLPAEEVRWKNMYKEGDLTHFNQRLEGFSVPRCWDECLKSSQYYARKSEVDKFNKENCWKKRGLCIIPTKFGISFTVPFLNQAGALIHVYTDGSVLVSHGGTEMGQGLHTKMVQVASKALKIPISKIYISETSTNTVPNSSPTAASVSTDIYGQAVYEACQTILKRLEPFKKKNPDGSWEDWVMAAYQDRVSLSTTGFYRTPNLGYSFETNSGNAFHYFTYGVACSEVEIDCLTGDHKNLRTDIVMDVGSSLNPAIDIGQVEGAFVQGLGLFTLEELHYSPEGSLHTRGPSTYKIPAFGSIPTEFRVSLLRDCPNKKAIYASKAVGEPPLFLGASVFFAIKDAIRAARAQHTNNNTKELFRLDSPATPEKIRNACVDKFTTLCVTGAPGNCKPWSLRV
smiles,measurement,setting,value
COc1cc(-c2c(O)c(=O)oc3cc(O)cc(O)c23)ccc1O,IC50,,3.9 µM
COc1cc([C@@H]2c3c(cc4c(c3OC)OCO4)C[C@@H]3COC[C@H]32)cc2c1OCO2,inhibition (INH),"cattle, 10 min",Active
